pIC50: −log10 of the molar value. In brackets after ≈: the same amount, converted by molar mass. Bounds are passed on as bounds.

In data set [1] the target is estrogen receptors in MCF7 cells (Homo sapiens (Human), UniProt P03372). As to the kind of experiment: Degradation of estrogen receptors in MCF7 cells (in-cell western). It is filed as cell-based. The following applies: for DC50: 24 hours treatment, read-out: ER level DC50; for Dmax: 24 hours, 0.1 µM fulvestrant = 100% degradation control, read-out: Maximum degradation rate. The procedure:
The purpose of the experiment is to determine the degradation activity of the compounds of the present invention on endogenously expressed estrogen receptors in MCF7 cells, and to evaluate the activity of the compounds according to DC50 and maximum degradation efficiency.
MCF7 cells (ATCC, HTB-22) were cultured in DMEM (Gibco, 11995-065) complete medium containing 10% fetal bovine serum. On the first day of the experiment, MCF7 cells were inoculated in a 384-well plate at a density of 3000 cells/well using the complete medium, and cultured in a 37° C., 5% CO2 cell incubator. The compounds to be tested were dissolved in DMSO with a stock concentration of 10 mM, the solution was diluted with Echo 550 (Labcyte Inc.) and added to the cell culture plate. Each compound with the starting concentration for treatment of 100 nM was subjected to 3-fold gradient dilution with 9 concentration points. A blank control containing 0.5% DMSO was set, and double replicate wells as controls were set at each concentration point. The culture was cultured in a 37° C., 5% CO2 cell incubator for 24 hours. Paraformaldehyde was added to the cell culture medium in each cell culture well, and the final concentration of paraformaldehyde was about 3.7% to fix the cells. After the mixture was reacted for 30 minutes, the supernatant was discarded, and 50 µL of PBS was added to each well for washing once. The cells were treated with PBS containing 0.5% v/v Tween-20 for 30 minutes, and washed with PBS once. A blocking solution (PBS containing 5% BSA, 0.05% Tween-20) was added, and the mixture was incubated at room temperature for 1 hour. The blocking solution was removed, a mixture solution of primary antibodies (anti-ER mAb, Estrogen Receptor α (D8H8) Rabbit mAb, GST, # 8644S, 1 : 1000 dilution; anti-GAPDH mAb, GAPDH(D4C6R) Mouse mAb, GST, #97166S, 1 : 2000 dilution) was added, and the mixture was incubated at room temperature for 3 hours. The culture was washed with PBST (PBS containing 0.05% Tween-20) 3 times. Secondary antibodies for detection (800CW-goat anti-rabbit IgG, LI-COR, P/N: 926-32211, 1 : 1000 dilution; 680RD-goat anti-mouse IgG, LI-COR, #925-68070, 1 : 1000 dilution) were added, and the mixture was incubated at room temperature and in the dark for 45 minutes. After washing with PBST 3 times, the fluorescence signal of each well was read using Odyssey CLx, and the value of Chanel 800 (ER)/Chanel 680 (GAPDH) was calculated. The wells treated with 0.1 µM fulvestrant were used as the 100% degradation control, and the degradation rate at each concentration point was calculated. The data were analyzed and processed by XlLfit, and the degradation activity DC50 and the maximum degradation rate Imax of each compound were calculated.

A further data set has as its system MCF7 cells. Briefly: Inhibition of the proliferation of MCF7 cells (CellTiter-Glo). Format: cell-based. Conditions: Homo sapiens, MCF7, 168 h; 7 days treatment; read-out: MCF-7 cell proliferation inhibition IC50. The procedure: The purpose of the experiment is to determine the inhibitory effect of the compounds of the present invention on the proliferation of MCF7 cells in vitro, and to evaluate the activity of the compounds according to IC50 and maximum inhibitory efficiency.
MCF7 cells (ATCC, HTB-22) were cultured in DMEM (Gibco, 11995-065) complete medium containing 10% fetal bovine serum. On the first day of the experiment, MCF7 cells were inoculated in a 384-well plate at a density of 500 cells/well using the complete medium, and cultured in a 37° C., 5% CO2 cell incubator overnight. The next day, the compounds to be tested were added for drug treatment, and the compound solution with a stock concentration of 10 mM was diluted with Echo550 (Labcyte Inc.) and transferred to each cell culture well. Each compound with the starting concentration for treatment of 100 nM in cells was subjected to 3-fold gradient dilution with 9 concentration points. A blank control containing 0.3% DMSO was set, and double replicate wells as controls were set at each concentration point. The culture was cultured in a 37° C., 5% CO2 cell incubator for 7 days, and the cell culture plate was taken out on day 8.

Data set [2] can be described thus: Apparent solubility in phosphate buffer at pH 7.4. It is filed as physicochemical. Conditions: aqueous buffer, kinetic from dmso stock, phosphate buffer pH 7.4, 25° C. The procedure:
The compounds to be tested were prepared according to the method described. The control drug progesterone was purchased from Sigma. Phosphate buffer with pH 7.4 was prepared in our laboratory. Acetonitrile and methanol were purchased from Fisher. Other reagents were purchased from the market.
10 mM stock solution of substance to be tested and control drug progesterone was prepared with DMSO.
30 µL of 10 mM stock solution of substance to be tested was taken, and added to the corresponding position of the corresponding 96-well plate in the specified order. 970 µL of phosphate buffer (pH 7.4) was added to the corresponding vial in the sample plate. The experiment was performed in parallel duplicate. A stirring rod was added to each vial and a polytetrafluoroethylene/silicone stopper was covered thereon. The sample tray was then placed in an Eppendorf Thermomixer Comfort and shaken at 1100 rpm for 2 hours at 25° C. After 2 hours, the stopper was removed, and the stirring rod was sucked away by a large magnet, then the sample was transferred from the sample plate to the filter plate. A vacuum pump was used to generate negative pressure and the sample was filtered. 5 µL of the filtrate was transferred to a new sample plate, and then 5 µL of DMSO and 490 µL of 50% ACN(IS).H2O (internal standard acetonitrile : water = 1 : 1) were added. Depending on the peak shape, it may be possible to dilute the sample diluent with a certain proportion of 50% ACN(IS).H2O for better peak shape. […]
The loading plate was placed in the loading tray of the autosampler, and the sample was evaluated by liquid chromatography-mass spectrometry analysis.
All calculations are performed via Microsoft Excel. Analysis and quantification of the sample filtrate was accomplished by using the liquid chromatography-mass spectrometry to characterize and quantify the peaks of the standards with known concentrations. The apparent solubility of the compounds of the present invention in phosphate buffer (PH 7.4) was calculated.

Chain of estrogen receptors in MCF7 cells (P03372 whole entry): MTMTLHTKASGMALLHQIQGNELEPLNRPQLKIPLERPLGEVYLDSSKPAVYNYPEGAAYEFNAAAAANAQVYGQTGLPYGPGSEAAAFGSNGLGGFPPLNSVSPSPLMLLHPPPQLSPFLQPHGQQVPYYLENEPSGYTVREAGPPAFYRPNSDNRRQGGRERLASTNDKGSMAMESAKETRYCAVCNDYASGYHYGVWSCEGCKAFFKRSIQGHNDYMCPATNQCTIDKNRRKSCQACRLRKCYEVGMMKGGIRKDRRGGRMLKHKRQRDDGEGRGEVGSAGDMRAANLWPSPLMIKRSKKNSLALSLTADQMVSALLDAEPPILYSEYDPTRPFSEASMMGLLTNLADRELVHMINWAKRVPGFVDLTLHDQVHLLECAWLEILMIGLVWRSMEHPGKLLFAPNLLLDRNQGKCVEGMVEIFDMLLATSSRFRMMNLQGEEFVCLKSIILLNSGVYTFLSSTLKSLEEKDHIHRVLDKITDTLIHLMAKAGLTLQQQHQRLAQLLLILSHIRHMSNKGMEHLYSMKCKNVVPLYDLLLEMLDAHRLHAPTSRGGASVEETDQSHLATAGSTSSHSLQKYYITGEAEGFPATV

Turning to `C[C@@H]1Cc2c([nH]c3ccccc23)C(c2c(F)cc(N[C@H]3CCN(CCCF)C3)cc2F)N1CC(F)(F)F` (stereo in doubt) [Example 4, (S)-N-(3,5-difluoro-4-((1S,3R)-3-methyl-2-(2,2,2-trifluoroethyl)-2,3,4,9-tetrahydro-1H-pyridino[3,4-b]indol-1-yl)phenyl)-1-(3-fluoropropyl)pyrrolidin-3-amine], in data set [1], the DC50 turned out to be 40 pM and the Dmax was found to be 99%. Also, in the data set with MCF7 cells, the pIC50 is 9.64. Moreover, the solubility at 2 h in data set [2] was below 0.3 µM.

Regarding `C[C@@H]1Cc2c([nH]c3ccccc23)C(c2c(F)cc(N[C@H]3CCN(CCCF)C3)cc2F)N1CC(F)(F)CO` (stereo in doubt) [Example 7, 3-((1S,3R)-1-(2,6-difluoro-4-(((S)-1-(3-fluoropropyl)pyrrolidin-3-yl)amino)phenyl)-3-methyl-3,4-dihydro-1H-pyridino [3,4-b]indole-2(9H)-yl)-2,2-difluoropropane-1-ol], the DC50 in data set [1] was 60 pM. The pIC50 in the data set on MCF7 cells is 9.92. Besides, the solubility at 2 h in data set [2] was determined as 4 µM (≈ 2.15 µg/mL).

Consider `C[C@@H]1Cc2c([nH]c3ccccc23)[C@@H](c2ccc(N[C@H]3CCN(CCCF)C3)cn2)N1CC(F)(F)F` [Example 3, N-((S)-1-(3-fluoropropyl)pyrrolidin-3-yl)-6-((1S,3R)-3-methyl-2-(2,2,2-trifluoroethyl)-2,3,4,9-tetrahydro-1H-pyridino[3,4-b]indol-1-yl)pyridine-3-amine], for which, in data set [1], the DC50 was 150 pM and the Dmax worked out at 104%. The pIC50 with MCF7 cells is 9.57. Also, the solubility at 2 h in data set [2] stood at 92 µM (≈ 45 µg/mL).

Source of the values: patent publication US20230348459A1, “PYRROLIDINE COMPOUND AND USE THEREOF” (SIMCERE PHARMACEUTICAL CO., LTD., priority 2020, published 2023).
